{"source": "patent US20100048634A1", "about": "“METHOD FOR TREATING APATHY SYNDROME” (priority 2005, published 2010)", "format_in_all_cases": "in vivo, human", "key": {"post-stroke patients [1]": {"system": "post-stroke patients", "assay": "Controlled clinical trial against placebo, Apathy Evaluation Scale", "method": "Apathy Evaluation Scale (AES) is used as a measure of apathy severity. Items and factor structure of AES are listed in Marin, et al. (Psychiatry Res. 1991; 38(2):143-62). The assessment, the impairment, as well as and the need of recovery of apathy and cognitive function after stroke are illustrated by Robert G. Robinson “The Clinical Neuropsychiatry of Stroke”, 1998, Cambridge University Press, pages 143, 222-225 and 292-293.\n(§1) In this trial, nefiracetam was administered orally to 103 post-stroke patients, who all have some degree of depression, for up to twelve weeks after the vascular event. Concurrently, 56 patients received placebo (placebo group). Of the 103 post-stroke patients treated with nefiracetam, 55 received 600 mg daily (600 mg group), and 48 received 900 mg daily (900 mg group). The three groups of patients were followed for up to 12 weeks, and evaluated at the end of week 4, the end of week 8, and the end of week 12, by measuring the Apathy Evaluation Scale (a symptom scale for measuring apathy), and by measuring SDMT (for measuring cognitive function)."}, "post-stroke patients [2]": {"system": "post-stroke patients", "assay": "Controlled clinical trial against placebo, symbol digit modality test (SDMT), cognitive function", "settings": "for change in cognitive function (SDMT): at 4 weeks, placebo 3.2; for average improvement in cognitive function (SDMT): last visit, placebo 4.2; for improvement in the SDMT scale: patients with cortical strokes, week 12, placebo 2.7", "text": "Cognitive function can be measured using a tool called the symbol digit modality test (SDMT). In this test, patients have a legend which links each digit to a specific graphical, non-text symbol. The patients have a pre-specified, fixed period of time to match, in writing, as many digits to a list of symbols as possible. The number of correctly matched digits to symbols provides a measure of a range of cognitive functions, including executive function, attention, memory, and motor function (Joy, et.al. Arch Clin Neuropsychol. 19:759-67, 2004; Joy, et.al. Clin Neuropsychol. 17:182-94; 2003)\nas §1"}, "[3]": {"system": "post-stroke patients having moderate to severe depression", "assay": "Apathy Scale (AS) in post-stroke patients having moderate to severe depression", "settings": "600 or 900 mg/day oral, 12 weeks, especially high dose", "text": "Apathy Scale (AS) is an abbreviated version of the AES. Items and scoring of Papthy Scale can be found, for example, at Starkstein, et al., J Neuropsychiatry Clin. Neurosciences, 4: 134-139 (1992).\n(§2) In 151 post-stroke patients having moderate to severe depression, the intervention-free data of Apathy Scale (AS), as a valid measure of apathy, and of Hamilton Rating Scale of Depression (HAM-D) and Beck Depression Inventory (BDI), as valid measures of depression, were collected and analyzed using the method of confirmatory factor analysis. HAM-D and BDI are fully validated and are widely used measures of the severity of depression. HAM-D (Hamilton, J Neurol. Neurosurg. Psychiatry. 23:56-62, 1960) is rated by a professional. BDI (Arch Gen Psychiatry. 4:561-571, 1961) is rated by a patient.\n(§3) The 151 patients, who were evaluated at least once after treatment, included the 103 patients studied in Example 1. The 151 patients were divided in three groups each orally receiving placebo (51 patients) or nefiracetam at 600 mg/day (54 patients) or nefiracetam at 900 mg/day (46 patients).\n(§4) The data at the end of 12 weeks were analyzed and summarized as follows: […]"}, "[4]": {"system": "post-stroke patients having moderate to severe depression", "assay": "Hamilton Rating Scale of Depression (HAM-D) in post-stroke patients having moderate to severe depression", "settings": "600 or 900 mg/day oral; 12 weeks; consistent across various severity of baseline apathy", "text": "as §2, §3, §4"}, "[5]": {"settings": "600 and 900 mg daily oral, up to 12 weeks"}}, "data": [{"smiles": "Cc1cccc(C)c1NC(=O)CN1CCCC1=O", "note": "[nefiracetam]", "values": [{"measurement": "improvement in apathy (Apathy Evaluation Scale)", "setting": "post-stroke patients [1]; 600 mg daily oral, at 4 weeks, placebo 1.4", "result": 1.9, "unit": "point"}, {"measurement": "average improvement in apathy (Apathy Evaluation Scale)", "setting": "post-stroke patients [1]; 600 mg daily oral, cortical stroke patients, last visit carried forward, placebo 1.0", "result": 3.4}, {"measurement": "improvement in apathy (Apathy Evaluation Scale)", "setting": "post-stroke patients [1]; 600 mg daily oral, cortical strokes and significant baseline apathy (greater than 18), last visit, placebo 5.4", "result": 9.4, "unit": "points"}, {"measurement": "average improvement in apathy (Apathy Evaluation Scale)", "setting": "post-stroke patients [1]; 600 mg daily oral, last visit (12 weeks), placebo 1.4", "result": 2.1, "unit": "points"}, {"measurement": "average improvement in apathy (Apathy Evaluation Scale)", "setting": "post-stroke patients [1]; 600 mg daily oral, patients treated within 28 days of the stroke, placebo 0.6", "result": 1.3, "unit": "points"}, {"measurement": "improvement in apathy (Apathy Evaluation Scale)", "setting": "post-stroke patients [1]; 900 mg daily oral, at 4 weeks, placebo 1.4", "result": 1.9, "unit": "point"}, {"measurement": "average improvement in apathy (Apathy Evaluation Scale)", "setting": "post-stroke patients [1]; 900 mg daily oral, cortical stroke patients, last visit carried forward, placebo 1.0", "result": 5.2, "unit": "points"}, {"measurement": "improvement in apathy (Apathy Evaluation Scale)", "setting": "post-stroke patients [1]; 900 mg daily oral, cortical strokes and significant baseline apathy (greater than 18), last visit, placebo 5.4", "result": 11.7, "unit": "points"}, {"measurement": "average improvement in apathy (Apathy Evaluation Scale)", "setting": "post-stroke patients [1]; 900 mg daily oral, last visit (12 weeks), placebo 1.4", "result": 3.4, "unit": "points"}, {"measurement": "average improvement in apathy (Apathy Evaluation Scale)", "setting": "post-stroke patients [1]; 900 mg daily oral, patients treated within 28 days of the stroke, placebo 0.6", "result": 6.1, "unit": "points"}, {"measurement": "change in apathy syndrome in comparison to the placebo group (in words)", "setting": "post-stroke patients [1]; [5]", "result": "dose-dependent and time-dependent change in apathy syndrome"}, {"measurement": "change in cognitive function (SDMT)", "setting": "post-stroke patients [2]; 600 mg daily oral", "result": 4.1, "unit": "point"}, {"measurement": "average improvement in cognitive function (SDMT)", "setting": "post-stroke patients [2]; 600 mg daily oral", "result": 5.7, "unit": "points"}, {"measurement": "improvement in the SDMT scale", "setting": "post-stroke patients [2]; 600 mg daily oral", "result": 7, "unit": "points"}, {"measurement": "change in cognitive function (SDMT)", "setting": "post-stroke patients [2]; 900 mg daily oral", "result": 4.4, "unit": "point"}, {"measurement": "average improvement in cognitive function (SDMT)", "setting": "post-stroke patients [2]; 900 mg daily oral", "result": 6.6, "unit": "points"}, {"measurement": "improvement in the SDMT scale", "setting": "post-stroke patients [2]; 900 mg daily oral", "result": 14.2, "unit": "points"}, {"measurement": "improvements in cognitive function as measured by the SDMT (in words)", "setting": "post-stroke patients [2]; [5]", "result": "dose-dependent and time-dependent improvements in cognitive function"}, {"measurement": "reduction in apathy measured by the Apathy Scale versus placebo (in words)", "setting": "[3]; consistent across moderate to severe and severe depression", "result": "more reduction in apathy than did patients on placebo"}, {"measurement": "reduction in apathy measured by the Apathy Scale versus placebo (in words)", "setting": "[3]; consistent across various severity of baseline apathy", "result": "more reduction in apathy than did patients on placebo"}, {"measurement": "reduction in depression measured by HAM-D versus placebo (in words)", "setting": "[4]", "result": "patients on placebo showed slightly more reduction in depression than did patients on active treatment"}]}]}
